The target in test [1] is T1, BtCDPS (Caldibacillus thermoamylovorans, UniProt A0A090KS30).
T1 construct: gene yvmC; full length (residues 1-232), codon-optimised synthetic gene, TEV-cleavable His6 tag cut, E. coli BL21(DE3), monomer
Kind of test: LC-MS of cyclic dipeptide product. Type of test: biochemical. Conditions: 50 mM HEPES pH 7.5, 500 mM NaCl, 5 mM DTT, 1 mM substrate, 20 °C, 24 h.

For test [2], the target named is T1, BtCDPS. As to the kind of experiment: LC-HRMS of cLL product; HPLC of DBE-OH; intact protein MS of acyl-enzyme. Type of test: biochemical. Conditions: 50 mM HEPES pH 7.5, 500 mM NaCl, 5 mM DTT, 500 uM substrate, room temperature; covalent (leucyl-enzyme intermediate at S33).

T1 sequence (A0A090KS30 1-231): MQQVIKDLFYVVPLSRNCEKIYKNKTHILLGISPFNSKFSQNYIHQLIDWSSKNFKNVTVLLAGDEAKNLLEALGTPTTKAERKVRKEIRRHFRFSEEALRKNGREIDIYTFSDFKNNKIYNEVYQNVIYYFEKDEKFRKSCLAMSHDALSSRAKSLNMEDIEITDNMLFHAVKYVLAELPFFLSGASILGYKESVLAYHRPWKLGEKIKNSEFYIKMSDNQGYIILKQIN

For `CSCC[C@H](N)C(=O)OCc1cc([N+](=O)[O-])cc([N+](=O)[O-])c1` [Met-DBE], the “LC-MS of cyclic dipeptide product” value at BtCDPS [1] was “Ile-DBE and Met-DBE were also substrates for BtCDPS”.
Still for that read-out and setting: then `CC[C@H](C)[C@H](N)C(=O)OCc1cc([N+](=O)[O-])cc([N+](=O)[O-])c1` [Ile-DBE], with “Ile-DBE and Met-DBE were also substrates for BtCDPS”.
In the case of `CC(C)C[C@H](N)C(=O)OCc1cc([N+](=O)[O-])cc([N+](=O)[O-])c1` [Leu-DBE], the “LC-HRMS of cLL product; HPLC of DBE-OH; intact protein MS of acyl-enzyme” value at BtCDPS [2] is listed as “a cyclic dipeptide (cLL) is generated by CDPS when Leu-DBE was used as a substrate”.
